Laboratory results: patent US8178579B2, “Dioxanes and uses thereof” (President and Fellows of Harvard College, priority 2001, dated 2012)
“Also recorded” adds a separate entry of the source. Non-standard residues stand in square brackets, D forms with d. Residues, ends and D or L forms follow the SMILES beside them. Aoe = N[C@@H](CCCCCC(=O)[C@@H]1CO1)C(=O)O

Experiments:
α-tubulin deacetylation = assay: acetylated α-tubulin in cells (AcTubulin cytoblot, immunofluorescence, Western blot); assay type: cell-based, human; settings: for effect on tubulin deacetylation / α-tubulin acetylation in cells: A549 (also BS-C-1) cells, tubacin/JCWII114, niltubacin/JCWII153 2 μM, TSA 100 nM-4 μM, library ~2-5 μM, 18 h
Procedure: (§1) A549 cells were seeded at a density of 4,000 cells/50 μl in DMEM+ in white tissue culture-treated 384-well plates (Nalge Nunc) using a Multidrop 384 liquid dispenser (Labsystems). Library small molecules were pinned twice (100-150 nl/pin) from ˜1 mM stock solutions (DMSO) and incubated for 18 hours. For the ITSA1+AcTubulin assay, ITSA1 (50 μM) was added four hours after pin-transfer of library molecules. Media was aspirated with a 16-channel wand. For the acetylated α-tubulin cytoblot (AcTubulin), 40 μl/well of fixation solution (3.7% formaldehyde (1:10 from 37% stock) in Tris-buffered saline (TBS, 0.15 M NaCl, 0.02 M Tris-Cl, pH 7.4) was added and plates incubated for twenty minutes at room temperature. After aspiration, 30 μl 100% methanol (−20° C.) was added and incubated for five minutes at room temperature. After aspirating and washing three times with 90 μl of antibody dilution buffer (ADB, TBS/2% bovine serum albumin, 0.1% TritonX-100) the wells were blocked for twenty minutes in ADB. After aspirating, 20 μl/well of ADB containing anti-acetylated α-tubulin antibody (mouse; 1:1000) and anti-mouse IgG horseradish peroxidase (HRP)-conjugated antibody (1:750) was added and incubated overnight (4° C.). For the anti-acetyl lysine cytoblot (AcLysine), 40 μl/well of fixation solution (95% ethanol/5% acetic acid, −20° C.) was added and plates incubated for five minutes at room temperature. Wells were aspirated, washed, and blocked in ADB as for the AcTubulin protocol. After aspirating, 20 μl/well of ADB containing anti-acetylated lysine (rabbit; 1:375) and anti-rabbit IgG-HRP conjugated antibody (1:750) was added and incubated overnight (4° C.). For the anti-acetylated histone H3 (AcHistH3) and anti-acetylated histone H4 (AcHistH4) cytoblots, cells were fixed, washed, and blocked in ADB as for the AcLysine cytoblot. After aspirating, 20 μl/well of ADB containing anti-acetylated histone H3 antibody (rabbit, 1:500) or anti-acetylated histone H4 antibody (rabbit, 1:500) was added and incubated for two hours at room temperature. Wells were aspirated and washed twice with 80 μl of ADB. After aspirating, 20 μl/well of ADB containing anti-rabbit IgG-HRP conjugated antibody (1:1000) was added and incubated for two hours (room temperature). For the AcTubulin and AcLysine assays, plates were washed three times with TBS before adding 20 μl/well of enhanced chemiluminescent (ECL) mixture. For the AcHistH3 and AcHistH4 assays, plates were washed three times with 80 μl TBS with 1% Triton X-100 and once with 80 μl TBS before adding 20 μl/well of ECL mixture. Plates were read on an Analyst plate reader (LJL Biosystems) with an integration time of 0.1 seconds.
(§2) 1,3-dioxanes from single polystyrene macrobeads were prepared as 1-2 mM stock solutions in DMSO as described [Hubbert, C., Guardiola, A., Shao, R., Kawaguchi, Y., Ito, A., Nixon, A., Yoshida, M., Wang, X. F., and Yao, T. P. (2002). HDAC6 is a microtubule-associated deacetylase. Nature 417, 455-458]. Bead decoding and structure determination were as described [See for example, Hubbert, C., Guardiola, A., Shao, R., Kawaguchi, Y., Ito, A., Nixon, A., Yoshida, M., Wang, X. F., and Yao, T. P. (2002). HDAC6 is a microtubule-associated deacetylase. Nature 417, 455-458; and Piperno, G., LeDizet, M., and Chang, X. J. (1987). Microtubules containing acetylated alpha-tubulin in mammalian cells in culture. J. Cell Biol. 104, 289-302]. Small molecules (˜2-5 μM) of interest were retested using a sample from the plate of stock solutions by fluorescence microscopy and comparison to the effects of trichostatin (300 nM to 1 μM).
(§3) A549 cells were seeded at a density of 50,000/200 μl in DMEM+ on the surface of glass coverslips on top of Parafilm in a 10 cm dish and allowed to attach overnight. For detection of acetylated α-tubulin, cells were permeabilized and fixed with 100 mM K-PIPES, pH 6.8, 10 mM EGTA, 1 mM MgCl2, 0.2% triton X-100, 0.2% glutaraldehyde for fifteen minutes. […]

A549 cells = assay: mitotic abnormalities by immunofluorescence; assay type: cell-based, human; settings: 18 h or 24 h treatment, TSA 10 μM in FIG. 42C
Procedure: Detection of acetylated α-tubulin and acetylated histones by immunofluorescence was performed as described in Example 6 above. For determining microtubule stability, A549 cells were treated as indicated, fixed in glutaraldehyde, and stained for acetylated α-tubulin and total α-tubulin in antibody dilution buffer (ADB, Tris-buffered saline (TBS), 0.15 M NaCl, 0.02 M Tris-Cl, pH 7.4, with 2% bovine serum albumin and 0.1% Triton-X 100). For cold-depolymerization, cells were incubated at 4° C. or 37° C. for an additional 90 minutes before fixation. For calcium depolymerization, cells were incubated at 37° C. for 10 minutes in a microtubule-stabilizing buffer (0.2% NP-40, 5 mM MgCl2, 2 mM EGTA, 2 M glycerol, 100 mM PIPES, pH 6.8) with and without the addition of CaCl2 (2 mM) before glutaraldehyde fixation. For co-localization experiments, biotubacin (50 μM) treated A549 cells were fixed in 3.7% formaldehyde in TBS and processed as for detecting acetylated α-tubulin (See Example 6 above) with biotubacin detected using streptavidin-TR (1:500). HDAC6 was detected using a rabbit polyclonal antibody (1:250-1:750; C.M.G., unpublished data) under the conditions used to detect acetylated α-tubulin (See Example 6 above). Filamentous actin in HT-1080 cells was detected using TR-conjugated phalloidin (1 μg/mL), and depolymerized actin using FITC-conjugated deoxyribonuclease (10 μg/mL), following fixation in 3.7% formaldehyde in TBS. p58 (1:100) in NIH-3T3 cells was detected after fixation in 3.7% formaldehyde in TBS. Images for these experiments were collected on a Zeiss LSM510 confocal scanning laser microscope at the appropriate wavelengths using the accompanying software and processed with Adobe Photoshop. Deconvoluted serial images of TSA and DMSO treated A549 cells were obtained by taking sections (8μ) on a Zeiss Axioskop 2 microscope using an AxioCam camera and the accompanying software. Rat hippocampal neuronal cultures were fixed at room temperature for 15 min in phosphate-buffered saline (PBS) containing 4% paraformaldehyde. […]

histone deacetylation = assay: acetylated lysine / acetylated histone in cells (AcLysine cytoblot, immunofluorescence, Western blot); assay type: cell-based, human; settings: A549 (also BS-C-1) cells, tubacin, niltubacin 2 μM, histacin 20 μM, library ~2-5 μM, 18 h
Procedure: as §1, §2, §3

HDAC6F = target: T1, HDAC6F (Homo sapiens, UniProt Q9UBN7); assay: in vitro tubulin deacetylase (TDAC) assay, immunoprecipitated wild-type HDAC6F, MAP-stabilized tubulin; assay type: biochemical; settings: TSA 300 nM or 1 μM, tubacin, niltubacin, trapoxin B 1 μM
T1 construct: made in house; host or cells: TAg Jurkat cells, transient transfection, anti-FLAG M2 immunoprecipitation
T1 sequence (Q9UBN7 1-1215): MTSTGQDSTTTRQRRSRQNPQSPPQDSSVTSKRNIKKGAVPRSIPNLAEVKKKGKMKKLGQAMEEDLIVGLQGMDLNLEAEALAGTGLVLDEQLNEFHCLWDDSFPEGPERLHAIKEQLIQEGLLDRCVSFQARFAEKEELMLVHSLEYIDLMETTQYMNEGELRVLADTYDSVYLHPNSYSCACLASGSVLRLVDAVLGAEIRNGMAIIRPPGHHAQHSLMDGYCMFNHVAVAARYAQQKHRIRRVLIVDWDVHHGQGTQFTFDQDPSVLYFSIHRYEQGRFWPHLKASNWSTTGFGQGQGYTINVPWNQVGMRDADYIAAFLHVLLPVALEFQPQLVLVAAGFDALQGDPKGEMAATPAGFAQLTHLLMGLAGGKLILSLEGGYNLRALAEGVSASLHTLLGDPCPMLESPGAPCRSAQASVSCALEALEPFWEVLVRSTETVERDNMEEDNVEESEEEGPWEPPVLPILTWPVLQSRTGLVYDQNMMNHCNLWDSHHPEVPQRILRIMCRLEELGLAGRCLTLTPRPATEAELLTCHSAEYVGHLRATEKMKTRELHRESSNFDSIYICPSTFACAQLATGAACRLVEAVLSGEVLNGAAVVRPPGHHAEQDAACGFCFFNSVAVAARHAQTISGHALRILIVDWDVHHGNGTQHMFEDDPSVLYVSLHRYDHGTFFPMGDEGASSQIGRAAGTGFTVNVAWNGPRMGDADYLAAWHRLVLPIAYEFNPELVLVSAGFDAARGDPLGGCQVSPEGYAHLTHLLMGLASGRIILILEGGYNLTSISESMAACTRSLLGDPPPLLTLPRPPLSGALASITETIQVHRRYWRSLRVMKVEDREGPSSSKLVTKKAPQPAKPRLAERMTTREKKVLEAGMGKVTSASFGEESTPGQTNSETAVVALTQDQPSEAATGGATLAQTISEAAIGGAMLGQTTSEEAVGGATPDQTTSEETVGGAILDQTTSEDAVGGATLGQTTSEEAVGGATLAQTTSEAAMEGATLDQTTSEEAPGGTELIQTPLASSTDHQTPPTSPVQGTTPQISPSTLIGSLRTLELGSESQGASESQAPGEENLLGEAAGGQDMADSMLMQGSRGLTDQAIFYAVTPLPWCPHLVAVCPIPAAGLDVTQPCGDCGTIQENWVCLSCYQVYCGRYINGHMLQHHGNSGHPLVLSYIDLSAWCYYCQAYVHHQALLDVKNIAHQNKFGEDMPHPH
Excerpt: Tubulin and MAPs were isolated from bovine brain as described [See http://mitchison.med.harvard.edu/protocols/tubprep.html]. Whole brain and fractions from phosphocellulose chromatography were blotted for HDAC6 and acetylated α-tubulin. Cultured hippocampal neurons from dissociated 1-day old rat brains were transfected with an enhanced green fluorescent protein (EGFP)-actin construct at 4-5 days using the calcium phosphate method [E. N. Star, D. J. Kwiatkowski and V. N. Murthy, Nat. Neurosci. […] K. Miranti and M. E. Greenberg, J. Neurosci. […] Transfected cultures were allowed to grow for at least 48 h before the addition of experimental compounds.
[^3H]Acetate-incorporated histones were isolated from butyrate-treated HeLa cells as described [J. Taunton, C. […] Immunoprecipitates were incubated with acetylated histones and HDAC activity determined by scintillation counting as described [J. Taunton, C. […] TDAC assays were performed with immunoprecipitates using MAP-stabilized microtubules polymerized from MAP-rich tubulin fraction as described [C. […] Reactions were incubated (2 h) at 37° C., then incubated on ice (15 min).

[1] = listed as carboxylic acid analogue of JCWII114

C[C@@H]1NC(=O)[C@H]2CCCN2C(=O)[C@H](CCCCCC(=O)[C@@H]2CO2)NC(=O)[C@@H](C)NC1=O [HC toxin, reference compound]
effect on tubulin deacetylation / α-tubulin acetylation in cells (α-tubulin deacetylation): have no effect upon α-tubulin acetylation levels; also recorded: no effect on tubulin acetylation | mitotic abnormalities (A549 cells): caused a significant number of abnormal mitotic cells

O=C(O)CCCCCCC(=O)Nc1ccc([C@@H]2OC(c3ccc(CO)cc3)C[C@H](CSc3nc(-c4ccccc4)c(-c4ccccc4)o3)O2)cc1 (stereo partly shown) [JCWII153]
effect on tubulin deacetylation / α-tubulin acetylation in cells (α-tubulin deacetylation): inactivity; also recorded: had no effect on α-tubulin or histone acetylation | effect on tubulin deacetylation / α-tubulin acetylation in cells (α-tubulin deacetylation; [1]): did not affect histone or tubulin deacetylation | effect on histone deacetylation / lysine or histone acetylation in cells (histone deacetylation): inactivity; also recorded: had no effect on α-tubulin or histone acetylation | effect on histone deacetylation / lysine or histone acetylation in cells (histone deacetylation; [1]): did not affect histone or tubulin deacetylation | inhibition of TDAC activity of wild-type HDAC6F (HDAC6F): did not; also recorded: not inhibited by the addition of niltubacin or trapoxin

O=C(CCCCCCC(=O)Nc1ccc(C2OC(CSc3nc(-c4ccccc4)c(-c4ccccc4)o3)CC(c3ccc(CO)cc3)O2)cc1)NO (stereo not shown) [JCWII169]
potency of inducing α-tubulin acetylation relative to tubacin (α-tubulin deacetylation; AcTubulin cytoblot (enantiotubacin), cells (biotubacin)): equally as potent as tubacin | selectivity as TDAC inhibitor relative to tubacin (fold less selective) (α-tubulin deacetylation; after re-synthesis and retesting, unpublished data): ~5 fold | potency and selectivity of the enantiomers JCWII114 and JCWII169 compared (α-tubulin deacetylation; immunofluorescence and Western blot, A549 cells, 5 h or 18 h): No significant difference in selectivity or potency

O=C1N[C@@H](Cc2ccccc2)C(=O)N2CCC[C@@H]2C(=O)N[C@@H](CCCCCC(=O)[C@@H]2CO2)C(=O)N[C@H]1Cc1ccccc1 [trapoxin, trapoxin B, reference compound] (cyclo(FF[dP][Aoe]))
effect on tubulin deacetylation / α-tubulin acetylation in cells (α-tubulin deacetylation): have no effect upon α-tubulin acetylation levels | inhibition of TDAC activity of wild-type HDAC6F (HDAC6F): not inhibited by the addition of niltubacin or trapoxin | inhibition of TDAC activity of wild-type HDAC6F (HDAC6F; listed as trapoxin B): did not
